One series has as its system RSV. The conditions noted are these: cited from earlier work.
Series [1] can be described thus: Stability of 9 compounds in mouse plasma under storage conditions. Particulars: n = 6; for Stability 3-Freeze-Thaw Cycles RE: 3 times repeated freeze-thaw at −80 °C; for Stability Short-Term RE: 12 h at 4 °C; for Stability Long-Term RE: −20 °C for 20 days. The class given is in vitro ADME.
Series [2] in a line: HPLC-MS/MS quantification of 9 compounds in plasma of RSV-infected mice after Scutellaria baicalensis Georgi administration. The class given is in vivo, BALB/c mice. Details: drug-containing plasma content: unit not given here. The conditions noted are these: for drug-containing plasma content: RSV-infected mice, mean ± SD, n = 6. On the procedure: The study employed a Vanquish high-performance liquid chromatograph for chromatographic separation, with a HALO C18 column (2.1 × 100 mm, 2.7 μm) as the chromatographic column.
Mass spectrometry was performed using a quadrupole-electrostatic field orbitrap desktop mass spectrometer equipped with an electrospray ion source (ESI). The ESI parameters were set as follows: the pyrolysis voltage was 3.0 kV, the auxiliary gas flow rate was 10 mL/min, the ion transport tube temperature was 350 °C, the auxiliary gas temperature was 350 °C, and the sheath gas flow rate was 45 L/min. Quantitative analysis was performed using the selective ion detection (SIM) mode (Table S1).
Male BALB/c mice, aged 2 weeks and weighing 10–12 g, were chosen for this study. They were acclimatized for 2 days and then randomly assigned to one of five groups: blank (C), model (M), positive control ribavirin (Y1), positive control lianhua qingwen granules (Y2), and Scutellaria baicalensis Georgi administration (H1-H12). Each group consisted of six mice, and their weights were recorded. The mice were pre-administered for 2 days, and on the third day, RSV virus (TCID50 = 10^−6) was inoculated through intranasal infection at a volume of 35 μL per mouse. The blank group was inoculated with normal saline of the same volume. After the inoculation of the RSV virus, the blank and model groups were given distilled water by gavage, while the drug-administered groups were given an aqueous extract of Scutellaria baicalensis Georgi (10 µL/g) once a day for 3 days. The mice were observed daily for their mental status, hair color, diet, and body weight. […] It was then centrifuged at 3000 r/min for 10 min, and the upper layer of plasma was stored at −80℃. Lung tissues were weighed, the lung index was calculated, and the lung tissues were stored in the refrigerator at −80 °C for freezing.
The plasma sample (200 μL) was processed in a 5 mL tube. Subsequently, 10 μL of 5% formic acid and 20 μL of 2 mol/L hydrochloric acid were added, followed by vortexing for 1 min with 10 μL of internal standard solution (100 ng/mL tinidazole). The extraction was completed by adding 2000 μL of acetonitrile solvent and vortexing for 2 min. The mixture was then centrifuged at 12,000 r/min at 4 °C for 10 min, and the supernatant solution was collected in a new centrifuge tube. The supernatant solution was dried by nitrogen at room temperature before being redissolved in 50 μL of 70% acetonitrile solution containing 0.1% formic acid. After vortexing for 1 min, the solution was centrifuged at 12,000 r/min at 4 °C for 10 min, and the resulting supernatant was injected for analysis. The injection volume was 3 μL.
The drug-containing plasma at different time points was subjected to sample treatment. The HPLC-MS/MS analysis method was used to quantitatively detect the 9 compounds in the ion detection (SIM) mode. According to the relative peak area value = index peak area/internal standard peak area, the corresponding concentration value was calculated by substituting the standard curve of each component.

The mark [3] stands for this setting: high QC (20,000 or 10,000 ng/mL).
Setting [4] is: RSV-infected mice after Scutellaria baicalensis Georgi administration, double peak phenomenon.

SMILES strings stand for the structures. In brackets after ≈: the same amount, converted by molar mass.

As for `COc1c(O)cc(O)c2c(=O)cc(-c3ccccc3)oc12` [Wogonin], the “IC50 against RSV” value with RSV is 7.4 µg/mL (≈ 26 µM). In addition, the “Stability 3-Freeze-Thaw Cycles RE” value is on record as 12.89% in series [1] (setting [3]), −11.16% in series [1] (low QC (12.5 or 25.6 ng/mL)) and 9.82% in series [1] (medium QC (320 or 160 ng/mL)). Besides, the “Stability Short-Term RE” value in series [1] (setting [3]) is 8.46%; in series [1] (low QC (12.5 or 25.6 ng/mL)), −9.77%; in series [1] (medium QC (320 or 160 ng/mL)), 11.75%. Moreover, the figures for the “Stability Long-Term RE” value in series [1] (setting [3]), in series [1] (low QC (12.5 or 25.6 ng/mL)) and in series [1] (medium QC (320 or 160 ng/mL)) were 8.46%, −13.33% and 11.75%, respectively. Besides, the “time of highest plasma concentration, first peak” value in series [2] (setting [4]) is 0.167 h. In addition, in series [2] (setting [4]), the “time of highest plasma concentration, second peak” value is on record as 6 h. Moreover, the drug-containing plasma content is 344.59± 1.64 in series [2] (0.083 h after last gavage of Scutellaria baicalensis Georgi extract); 981.37± 13.72 in series [2] (0.167 h after last gavage of Scutellaria baicalensis Georgi extract); 471.39± 1.78 in series [2] (0.25 h after last gavage of Scutellaria baicalensis Georgi extract); 222.21± 6.76 in series [2] (0.5 h after last gavage of Scutellaria baicalensis Georgi extract); 181.04± 4.74 in series [2] (1 h after last gavage of Scutellaria baicalensis Georgi extract); 10.35± 1.79 in series [2] (2 h after last gavage of Scutellaria baicalensis Georgi extract). Moreover, the drug-containing plasma content in series [2] (4 h after last gavage of Scutellaria baicalensis Georgi extract) was 71.39± 17.8; in series [2] (6 h after last gavage of Scutellaria baicalensis Georgi extract) it was 2664.55± 129.18; in series [2] (8 h after last gavage of Scutellaria baicalensis Georgi extract) it was 97.31± 2.71; in series [2] (10 h after last gavage of Scutellaria baicalensis Georgi extract), 14.65± 8.42; in series [2] (12 h after last gavage of Scutellaria baicalensis Georgi extract), 3.41± 5.28; in series [2] (24 h after last gavage of Scutellaria baicalensis Georgi extract) it was 0.

The values are drawn from paper PMC10460054, “Multiplex Quantitative Analysis of 9 Compounds of Scutellaria baicalensis Georgi in the Plasma of Respiratory Syncytial Virus-Infected Mice Based on HPLC-MS/MS and Pharmacodynamic Effect Correlation Analysis” (Molecules, 2023).
